Like-named read-outs stand apart in the source and are kept apart here. *1 amine or outer side, *2 acyl side, *3 side chain or, on linkers, in order; H or OH if unused. Where a SMILES comes first, the peptide text is derived from it. Bridges are numbered along the chain shown (N, C = ends). [ ]: non-standard residue; d: D form. The star is where a group is joined. hPhe(3,5-F2-4-CF3) = N[C@@H](CCc1cc(F)c(C(F)(F)F)c(F)c1)C(=O)O; hPhe(3-Cl-4-CF3) = N[C@@H](CCc1ccc(C(F)(F)F)c(Cl)c1)C(=O)O; NPrPhe(4-CF3) = CCCN[C@@H](Cc1ccc(C(F)(F)F)cc1)C(=O)O; X46 = CCCCN([C@@H](Cc1ccc(C)cc1)C(=O)[*:2])[*:1]; NMeGly(cPent) = CN[C@H](C(=O)O)C1CCCC1; Ac4c(3,3-F2) = NC1(C(=O)O)CC(F)(F)C1; Hyp = O=C(O)[C@@H]1C[C@@H](O)CN1; NMeD = CN[C@@H](CC(=O)O)C(=O)O; NMeL = CN[C@@H](CC(C)C)C(=O)O; Oxazolidin(3-yl) = C1CN(*)CO1; αMeL = CC(C)C[C@](C)(N)C(=O)O; Morpholide = C1CN(*)CCO1; NMeA = CN[C@@H](C)C(=O)O; Ac5c = NC1(C(=O)O)CCCC1; Aze = O=C(O)[C@@H]1CCN1; Ac4c = NC1(C(=O)O)CCC1; Sar = CNCC(=O)O
Assays:
[1] = biological target: GDP-bound NRAS wild-type protein (Homo sapiens, UniProt P01111); assay: Binding to NRAS by surface plasmon resonance (SPR), Single Cycle Kinetics; conditions: for NRAS/KRAS (ratio of KD value for NRAS to KD value for KRAS) / NRAS/KRAS (ratio of KD value with respect to NRAS to KD value with respect to KRAS): SPR, GDP-bound NRAS wild-type protein vs GDP-bound KRAS wild-type protein
Sequence of GDP-bound NRAS wild-type protein (P01111 whole entry): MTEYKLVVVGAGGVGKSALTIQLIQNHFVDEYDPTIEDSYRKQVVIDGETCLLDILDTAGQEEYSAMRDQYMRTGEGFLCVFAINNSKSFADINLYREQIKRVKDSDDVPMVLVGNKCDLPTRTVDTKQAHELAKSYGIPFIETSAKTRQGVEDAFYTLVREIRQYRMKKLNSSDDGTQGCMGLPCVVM

[2] = biological target: GDP-bound KRAS wild-type protein (Homo sapiens, UniProt P01116); assay: Binding to KRAS by surface plasmon resonance (SPR), Single Cycle Kinetics; conditions: GDP-bound KRAS wild-type protein, read-out: KRAS KD
Sequence of GDP-bound KRAS wild-type protein (P01116 whole entry): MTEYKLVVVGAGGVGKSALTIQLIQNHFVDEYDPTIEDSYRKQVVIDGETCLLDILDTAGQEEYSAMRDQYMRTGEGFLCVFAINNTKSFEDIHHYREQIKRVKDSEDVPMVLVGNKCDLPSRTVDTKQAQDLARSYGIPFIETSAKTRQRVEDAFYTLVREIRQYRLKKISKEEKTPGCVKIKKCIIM

[3] = biological target: GDP-bound HRAS wild-type protein (Homo sapiens, UniProt P01112); assay: Binding to HRAS by surface plasmon resonance (SPR), Single Cycle Kinetics; conditions: for HRAS/KRAS (ratio of KD value for HRAS to KD value for KRAS) / HRAS/KRAS (ratio of KD value with respect to HRAS to KD value with respect to KRAS): SPR, GDP-bound HRAS wild-type protein vs GDP-bound KRAS wild-type protein
Sequence of GDP-bound HRAS wild-type protein (P01112 whole entry): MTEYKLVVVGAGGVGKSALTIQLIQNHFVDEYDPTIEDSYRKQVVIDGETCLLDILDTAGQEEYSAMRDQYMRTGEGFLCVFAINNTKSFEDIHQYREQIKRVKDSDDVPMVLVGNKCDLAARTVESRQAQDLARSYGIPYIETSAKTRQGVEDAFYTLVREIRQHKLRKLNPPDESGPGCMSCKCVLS

[4] = SPR Single Cycle Kinetics, 1:1 binding model

| SMILES | Kd ([2]; SPR, Single Cycle Kinetics) [nM] | Kd [2, 4] [nM] | NRAS/KRAS (ratio of KD value for NRAS to KD value for KRAS) [1] | HRAS/KRAS (ratio of KD value for HRAS to KD value for KRAS) [3] | NRAS/KRAS (ratio of KD value with respect to NRAS to KD value with respect to KRAS) [1] | HRAS/KRAS (ratio of KD value with respect to HRAS to KD value with respect to KRAS) [3] | NRAS/KRAS (ratio of KD value with respect to GDP-bound NRAS wild-type protein to KD value with respect to KRAS) ([1]; SPR KD ratio NRAS/KRAS, class symbols) | HRAS/KRAS (ratio of KD value with respect to GDP-bound HRAS wild-type protein to KD value with respect to KRAS) ([3]; SPR KD ratio HRAS/KRAS, class symbols) |
| --- | --- | --- | --- | --- | --- | --- | --- | --- |
| CCO[C@@H]1C[C@H]2C(=O)NC3(CC(C)(C)C3)C(=O)N(C)[C@@H](C(CC)CC)C(=O)N(C)[C@H](C(=O)N(C)C)CC(=O)N(C)[C@@H](CC3CCC3)C(=O)N[C@@H]([C@@H](C)CC)C(=O)N(C)CC(=O)N(C)[C@H]3C/C=C\CCN(C3=O)[C@@H](Cc3ccc(C(F)(F)F)cc3)C(=O)N(C)CC(=O)N[C@@H](CCc3ccc(C(F)(F)F)c(OC)c3)C(=O)N2C1 [PP2164] | 0.29 |  | A (a compound having 10 or more and less than 20 is denoted as A) | A (a compound having 10 or more and less than 20 is denoted as A) |  |  |  |  |
| CCCN1C(=O)CN(C)C(=O)[C@@H]2CCN2C(=O)[C@H]([C@@H](C)CC)NC(=O)[C@H](CC(C)C)N(C)C(=O)C[C@@H](C(=O)N2CCOCC2)N(C)C(=O)[C@H](C2CCCC2)N(C)C(=O)C2(CC(F)(F)C2)NC(=O)[C@@H]2CCCN2C(=O)[C@H](CCc2cc(F)c(C(F)(F)F)c(F)c2)NC(=O)CN(C)C(=O)[C@@H]1Cc1ccc(C(F)(F)F)cc1 [PP0783] ([NMeL]I[Aze][Sar][NPrPhe(4-CF3)][Sar][hPhe(3,5-F2-4-CF3)]P[Ac4c(3,3-F2)][NMeGly(cPent)][NMeD]-Morpholide; lactam N-11) |  | 0.85 |  |  | B (a compound having 3 or more and less than 10 is denoted as B) | B (a compound having 3 or more and less than 10 is denoted as B) |  |  |
| CCCN1C(=O)[C@@H]2CCN2C(=O)CN(C)C(=O)[C@H]([C@@H](C)CC)NC(=O)[C@H](CC(C)C)N(C)C(=O)C[C@@H](C(=O)N(C)C)NC(=O)[C@H](C2CCCC2)N(C)C(=O)C2(CCC2)NC(=O)[C@@H]2CCCN2C(=O)[C@H](CCc2ccc(C(F)(F)F)c(Cl)c2)NC(=O)CN(C)C(=O)[C@@H]1Cc1ccc(C(F)(F)F)cc1 [PP0386] ([NMeL]I[Sar][Aze][NPrPhe(4-CF3)][Sar][hPhe(3-Cl-4-CF3)]P[Ac4c][NMeGly(cPent)]D-NMe2; lactam N-11) |  | 0.69 | C (A compound having a KD ratio of 0.1 or more and less than 3 is denoted as C) | B (a compound having 3 or more and less than 10 is denoted as B) |  |  |  |  |
| CCC[C@H]1C(=O)N[C@@H]([C@@H](C)CC)C(=O)N2CCC[C@H]2C(=O)N(C)[C@H]2C/C=C\CCN(C2=O)[C@@H](Cc2ccc(C(F)(F)F)cc2)C(=O)N(C)CC(=O)N[C@@H](CCc2ccc(C(F)(F)F)c(OC)c2)C(=O)N2C[C@H](OCC)C[C@H]2C(=O)N(C)C2(CCC2)C(=O)N(C)[C@@H](C(CC)CC)C(=O)N(C)[C@H](C(=O)N(C)C)CC(=O)N1C [PP2317] | 0.4 |  | A (a compound having 10 or more and less than 20 is denoted as A) | A (a compound having 10 or more and less than 20 is denoted as A) |  |  |  |  |
| CCO[C@@H]1C[C@H]2C(=O)NC3(CC(C)(C)C3)C(=O)N(C)[C@@H](C(CC)CC)C(=O)N(C)[C@H](C(=O)N3CCCC3)CC(=O)N(C)[C@@H](CC)C(=O)N[C@@H]([C@@H](C)CC)C(=O)N(C)CC(=O)N(C)[C@H]3C/C=C\CCN(C3=O)[C@@H](Cc3ccc(C)cc3)C(=O)N(C)CC(=O)N[C@@H](CCc3cc(F)c(C(F)(F)F)c(F)c3)C(=O)N2C1 [PP2149] | 0.58 |  | A (a compound having 10 or more and less than 20 is denoted as A) | A (a compound having 10 or more and less than 20 is denoted as A) |  |  |  |  |

Continued by falling Kd [2, 4], values first:

| Kd ([2]; SPR, Single Cycle Kinetics) [nM] | Kd [2, 4] [nM] | SMILES | NRAS/KRAS (ratio of KD value for NRAS to KD value for KRAS) [1] | HRAS/KRAS (ratio of KD value for HRAS to KD value for KRAS) [3] | NRAS/KRAS (ratio of KD value with respect to NRAS to KD value with respect to KRAS) [1] | HRAS/KRAS (ratio of KD value with respect to HRAS to KD value with respect to KRAS) [3] | NRAS/KRAS (ratio of KD value with respect to GDP-bound NRAS wild-type protein to KD value with respect to KRAS) ([1]; SPR KD ratio NRAS/KRAS, class symbols) | HRAS/KRAS (ratio of KD value with respect to GDP-bound HRAS wild-type protein to KD value with respect to KRAS) ([3]; SPR KD ratio HRAS/KRAS, class symbols) |
| --- | --- | --- | --- | --- | --- | --- | --- | --- |
|  | 0.64 | CCCN1C(=O)CN(C)C(=O)CN(C)C(=O)[C@H]([C@@H](C)CC)NC(=O)[C@H](CC(C)C)N(C)C(=O)C[C@@H](C(=O)N(C)C)N(C)C(=O)[C@H](C2CCCC2)N(C)C(=O)[C@](C)(CC(C)C)NC(=O)[C@@H]2CCCN2C(=O)[C@H](CCc2cc(F)c(C(F)(F)F)c(F)c2)NC(=O)CN(C)C(=O)[C@@H]1Cc1ccc(C(F)(F)F)cc1 [PP0738] ([NMeL]I[Sar][Sar][NPrPhe(4-CF3)][Sar][hPhe(3,5-F2-4-CF3)]P[αMeL][NMeGly(cPent)][NMeD]-NMe2; lactam N-11) |  |  | B (a compound having 3 or more and less than 10 is denoted as B) | B (a compound having 3 or more and less than 10 is denoted as B) |  |  |
|  | 0.62 | CCC[C@H]1C(=O)N[C@@H]([C@@H](C)CC)C(=O)N(C)CC(=O)N(C)[C@H]2C/C=C\CCN(C2=O)[C@@H](Cc2ccc(C)cc2)C(=O)N(C)CC(=O)N[C@@H](CCc2ccc(CC)c(Cl)c2)C(=O)N2C[C@H](OCC)C[C@H]2C(=O)NC2(CC(C)(C)C2)C(=O)N(C)[C@@H](C2CCCC2)C(=O)N(C)[C@H](C(=O)N(C)C)CC(=O)N1C [PP2778] |  |  |  |  | A (a compound having 10 or more and less than 20 is denoted as A) | A (a compound having 10 or more and less than 20 is denoted as A) |
|  | 0.25 | CCCN1C(=O)CN(C)C(=O)CN(C)C(=O)[C@H]([C@@H](C)CC)NC(=O)[C@H](CC(C)C)N(C)C(=O)C[C@@H](C(=O)N2CCOCC2)NC(=O)[C@H](C2CCCC2)N(C)C(=O)C2(CCCC2)NC(=O)[C@@H]2C[C@@H](OCC)CN2C(=O)[C@H](CCc2ccc(C(F)(F)F)c(Cl)c2)NC(=O)CN(C)C(=O)[C@@H]1Cc1ccc(C(F)(F)F)cc1 [PP0323] ([NMeL]I[Sar][Sar][NPrPhe(4-CF3)][Sar][hPhe(3-Cl-4-CF3)][Hyp](Et)[Ac5c][NMeGly(cPent)]D-Morpholide; lactam N-11) | B (a compound having 3 or more and less than 10 is denoted as B) | B (a compound having 3 or more and less than 10 is denoted as B) |  |  |  |  |
|  | 0.21 | CCCCN1C(=O)CN(C)C(=O)CN(C)C(=O)[C@H]([C@@H](C)CC)NC(=O)[C@H](CC(C)C)N(C)C(=O)C[C@@H](C(=O)N2CCOCC2)N(C)C(=O)[C@H](C2CCCC2)N(C)C(=O)C2(CCCC2)NC(=O)[C@@H]2CCCN2C(=O)[C@H](CCc2ccc(C(F)(F)F)c(Cl)c2)NC(=O)CN(C)C(=O)[C@@H]1Cc1ccc(C)cc1 [PP0062] ([NMeL]I[Sar][Sar][X46][Sar][hPhe(3-Cl-4-CF3)]P[Ac5c][NMeGly(cPent)][NMeD]-Morpholide; lactam N-11) | C (A compound having a KD ratio of 0.1 or more and less than 3 is denoted as C) | C (A compound having a KD ratio of 0.1 or more and less than 3 is denoted as C) |  |  |  |  |
|  | 0.17 | CCCN1C(=O)[C@@H]2CCN2C(=O)[C@H](C)N(C)C(=O)[C@H]([C@@H](C)CC)NC(=O)[C@H](CC(C)C)N(C)C(=O)C[C@@H](C(=O)N2CCOC2)N(C)C(=O)[C@H](C2CCCC2)N(C)C(=O)C2(CCCC2)NC(=O)[C@@H]2CCCN2C(=O)[C@H](CCc2ccc(C(F)(F)F)c(Cl)c2)NC(=O)CN(C)C(=O)[C@@H]1Cc1ccc(C(F)(F)F)cc1 [PP0183] ([NMeL]I[NMeA][Aze][NPrPhe(4-CF3)][Sar][hPhe(3-Cl-4-CF3)]P[Ac5c][NMeGly(cPent)][NMeD]-{Oxazolidin(3-yl)}; lactam N-11) | C (A compound having a KD ratio of 0.1 or more and less than 3 is denoted as C) | B (a compound having 3 or more and less than 10 is denoted as B) |  |  |  |  |

Reference: patent publication US20240158446A1, “CYCLIC COMPOUND HAVING SELECTIVE INHIBITORY ACTION ON KRAS OVER HRAS AND NRAS” (CHUGAI SEIYAKU KABUSHIKI KAISHA, priority 2021, published 2024)
